The source of these data is patent publication US20230124361A1, “SMALL MOLECULE STING ANTAGONISTS” (CURADEV PHARMA PVT. LTD., priority 2020, published 2023).

pIC50: −log10 of the molar value. Where only a bound is given, the exact number is not on record here.

T1 sequence (Q86WV6 whole entry R71H/G230A/H232R/R293Q): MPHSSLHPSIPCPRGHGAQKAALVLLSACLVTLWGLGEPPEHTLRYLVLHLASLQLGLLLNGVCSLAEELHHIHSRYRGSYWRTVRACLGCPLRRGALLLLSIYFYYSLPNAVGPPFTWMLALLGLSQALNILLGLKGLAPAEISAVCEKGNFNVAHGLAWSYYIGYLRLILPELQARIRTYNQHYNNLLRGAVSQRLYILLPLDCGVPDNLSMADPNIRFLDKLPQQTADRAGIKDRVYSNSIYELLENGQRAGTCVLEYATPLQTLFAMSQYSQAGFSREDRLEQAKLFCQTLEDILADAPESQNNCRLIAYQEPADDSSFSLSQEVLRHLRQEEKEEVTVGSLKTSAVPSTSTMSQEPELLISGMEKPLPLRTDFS

This test concerns the target T1, STING (Homo sapiens, UniProt Q86WV6, G230A/H232R/R293Q/R71H).
T1 construct: host or cells: THP1-Dual cells (human THP-1 monocyte line with Lucia/SEAP reporters)
In words: Reporter gene expression assay in THP1-Dual cells (IRF pathway Lucia luciferase, 2',3'-cGAMP stimulation). It counts as cell-based. As to conditions: 10 min preincubation, 5 μM 2',3'-cGAMP, 20 hr, IRF reporter QUANTI-Luc, read-out: THP-1 (HAQ) Activity. In short, it runs like this:
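THP1-Dual cells preincubated 10 min with compound, then stimulated with 5 μM 2′,3′-cGAMP for 20 hr. Secreted Lucia luciferase (IRF reporter) measured in supernatant by luminescence; IC50 reported as ranges (A ≤1 μM, B >1–≤10 μM, C >10 μM).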
With `O=C(Nc1ccc2c(c1)N(c1ccccc1)CCO2)Nc1ccc2cc[nH]c2c1` [Example 184, 1-(1H-indol-6-yl)-3-(4-phenyl-3,4-dihydro-2H-benzo[b][1,4]oxazin-6-yl)urea], the pIC50 was 5.00 to 6.00.

For the compound `O=C(Nc1ccc2c(c1)OCCN2c1ncco1)Nc1ccc2cc[nH]c2c1` [Example 185, 1-(1H-indol-6-yl)-3-(4-(oxazol-2-yl)-3,4-dihydro-2H-benzo[b][1,4]oxazin-7-yl)urea], the pIC50 is no less than 6.00. Under `N#CC1COc2cc(NC(=O)Nc3ccc4cc[nH]c4c3)ccc2N1Cc1ccccc1` (stereo not drawn) [Example 186, 1-(4-benzyl-3-cyano-3,4-dihydro-2H-benzo[b][1,4]oxazin-7-yl)-3-(1H-indol-6-yl)urea] stands 5.00 to 6.00; under `NCC1COc2cc(NC(=O)Nc3ccc4cc[nH]c4c3)ccc2N1Cc1ccccc1` (stereo not drawn) [Example 187, 1-(3-(aminomethyl)-4-benzyl-3,4-dihydro-2H-benzo[b][1,4]oxazin-7-yl)-3-(1H-indol-6-yl)urea], 5.00 to 6.00; under `NC(=O)C1COc2cc(NC(=O)Nc3ccc4cc[nH]c4c3)ccc2N1Cc1ccccc1` (stereo not drawn) [Example 188, 7-(3-(1H-indol-6-yl)ureido)-4-benzyl-3,4-dihydro-2H-benzo[b][1,4]oxazine-3-carboxamide], 5.00 to 6.00. Next, `CNC(=O)C(c1ccccc1)N1CCOc2ccc(NC(=O)Nc3ccc4cc[nH]c4c3)cc21` (stereo not drawn) [Example 189, 2-(6-(3-(1H-indol-6-yl)ureido)-2,3-dihydro-4H-benzo[b][1,4]oxazin-4-yl)-N-methyl-2-phenylacetamide]: 5.00 to 6.00; `O=C(Nc1ccc2c(c1)N(C(C(=O)NC1CC1)c1ccccc1)CCO2)Nc1ccc2cc[nH]c2c1` (stereo not drawn) [Example 190, 2-(6-(3-(1H-indol-6-yl)ureido)-2,3-dihydro-4H-benzo[b][1,4]oxazin-4-yl)-N-cyclopropyl-2-phenylacetamide]: 5.00 to 6.00. Under `O=C1CSc2ccc(N3CCN(c4ccc5cc[nH]c5c4)CC3)cc2N1Cc1ccccc1` [Example 191, 6-(4-(1H-Indol-6-yl)piperazin-1-yl)-4-benzyl-2H-benzo[b][1,4]thiazin-3(4H)-one] stands 5.00 to 6.00; under `N#C/N=C(\Nc1ccc2c(c1)N(Cc1ccccc1)C(=O)CS2)Nc1ccc2cc[nH]c2c1` [Example 192], less than 5.00; under `CN1C(=O)CSc2ccc(NC(=O)Nc3ccc(F)cc3)cc21` [Example 193, l-(4-fluorophenyl)-3-(4-methyl-3-oxo-3,4-dihydro-2H-benzo[b][1, 4]thiazin-6-yl)urea], less than 5.00. As for `Nc1ncc2c(n1)CCN(C(=O)Nc1ccc3c(c1)N(Cc1ccccc1)C(=O)CS3)C2` [Example 194, 2-amino-N-(4-benzyl-3-oxo-3,4-dihydro-2H-benzo[b][1, 4]thiazin-6-yl)-7,8-dihydropyrido [4,3-d] pyrimidine-6(5H)-carboxamide], the pIC50 is less than 5.00.

Turning to `O=C1CSc2ccc(NC(=O)Nc3ccc4cc[nH]c4c3)cc2N1` [Example 195, 1-(1H-indol-6-yl)-3-(3-oxo-3,4-dihydro-2H-benzo[b][1, 4]thiazin-6-yl)urea], the pIC50 was less than 5.00.
